Results taken from PubChem BioAssay (NCI).
“And” between values parts separate entries of the source, which are not always exact repeats. Identical values can stand only once.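 Values below derive from 48-hour exposures of cells grown in 96-well plates, with endpoints linearly interpolated between the two concentrations bracketing the appropriate inhibition level. The concentration for 50% growth inhibition is given as GI50. TGI: concentration producing complete growth inhibition.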

Tests used:
Assay in all cases: NCI tumour cell line growth inhibition, 48 h
LOX IMVI melanoma = tested on: LOX IMVI melanoma
TK-10 renal = tested on: TK-10 renal
U251 CNS = tested on: U251 CNS
HCC-2998 colon = tested on: HCC-2998 colon
DU-145 prostate = tested on: DU-145 prostate
786-0 renal = tested on: 786-0 renal
KM12 colon = tested on: KM12 colon
SF-295 CNS = tested on: SF-295 CNS
HOP-92 NSCLC = tested on: HOP-92 NSCLC
NCI-H460 lung = tested on: NCI-H460 lung
HOP-62 NSCLC = tested on: HOP-62 NSCLC
IGROV1 ovarian = tested on: IGROV1 ovarian
HCT-116 colon = tested on: HCT-116 colon
BT-549 breast = tested on: BT-549 breast
CCRF-CEM leukemia = tested on: CCRF-CEM leukemia
NCI/ADR-RES ovarian = tested on: NCI/ADR-RES ovarian
HT29 colon = tested on: HT29 colon
SW-620 colon = tested on: SW-620 colon
ACHN renal = tested on: ACHN renal
HS 578T breast = tested on: HS 578T breast
CAKI-1 renal = tested on: CAKI-1 renal
MOLT-4 leukemia = tested on: MOLT-4 leukemia
PC-3 prostate = tested on: PC-3 prostate
OVCAR-3 ovarian = tested on: OVCAR-3 ovarian
K-562 leukemia = tested on: K-562 leukemia
SR leukemia = tested on: SR leukemia
HL-60(TB) leukemia = tested on: HL-60(TB) leukemia
MCF7 breast = tested on: MCF7 breast
MDA-MB-435 = tested on: MDA-MB-435
UO-31 renal = tested on: UO-31 renal
SNB-19 CNS = tested on: SNB-19 CNS
SF-268 CNS = tested on: SF-268 CNS
SK-MEL-2 melanoma = tested on: SK-MEL-2 melanoma
MDA-MB-231 breast = tested on: MDA-MB-231 breast
MALME-3M melanoma = tested on: MALME-3M melanoma
UACC-62 melanoma = tested on: UACC-62 melanoma
A549 NSCLC = tested on: A549 NSCLC
EKVX NSCLC = tested on: EKVX NSCLC
RPMI-8226 leukemia = tested on: RPMI-8226 leukemia
OVCAR-8 ovarian = tested on: OVCAR-8 ovarian
A498 renal = tested on: A498 renal
OVCAR-5 ovarian = tested on: OVCAR-5 ovarian
SNB-75 CNS = tested on: SNB-75 CNS
SK-MEL-28 melanoma = tested on: SK-MEL-28 melanoma
SK-MEL-5 melanoma = tested on: SK-MEL-5 melanoma
RXF 393 renal = tested on: RXF 393 renal
NCI-H522 lung = tested on: NCI-H522 lung
M14 melanoma = tested on: M14 melanoma
NCI-H23 lung = tested on: NCI-H23 lung
OVCAR-4 ovarian = tested on: OVCAR-4 ovarian
T-47D breast = tested on: T-47D breast
UACC-257 melanoma = tested on: UACC-257 melanoma
HCT-15 colon = tested on: HCT-15 colon
NCI-H226 lung = tested on: NCI-H226 lung
SK-OV-3 ovarian = tested on: SK-OV-3 ovarian
COLO 205 colon = tested on: COLO 205 colon
SF-539 CNS = tested on: SF-539 CNS
SN12C renal = tested on: SN12C renal
MDA-N = tested on: MDA-N

CN(C)CCOc1ccc(-c2nc(-c3ccc4c(c3)CC/C4=N\O)c(-c3ccncc3)[nH]2)cc1
GI50 (LOX IMVI melanoma): 0.934 µM and 1.51 µM | TGI (LOX IMVI melanoma): 6.46 µM | GI50 (TK-10 renal): 5.66 µM and 5.27 µM | TGI (TK-10 renal): 10.1 µM and 10.4 µM | GI50 (U251 CNS): 4.83 µM and 2.35 µM | TGI (U251 CNS): 9.15 µM and 4.69 µM | GI50 (HCC-2998 colon): 4.74 µM and 8.01 µM | TGI (HCC-2998 colon): 8.89 µM and > 27.8 µM | GI50 (DU-145 prostate): 4.11 µM and 9.02 µM | TGI (DU-145 prostate): 7.82 µM and 17.4 µM | GI50 (786-0 renal): 5.02 µM and 2.22 µM | TGI (786-0 renal): 9.83 µM and 4.17 µM | GI50 (KM12 colon): 4.39 µM and 2.65 µM | TGI (KM12 colon): 8.07 µM and 6.18 µM | GI50 (SF-295 CNS): 4.6 µM and 8.82 µM | TGI (SF-295 CNS): 9.42 µM and 21.4 µM | GI50 (HOP-92 NSCLC): 0.71 µM and 1.15 µM | TGI (HOP-92 NSCLC): 4.29 µM and 24.1 µM | GI50 (NCI-H460 lung): 4.14 µM and 4.55 µM | TGI (NCI-H460 lung): 8.24 µM and 17.2 µM | GI50 (HOP-62 NSCLC): 4.3 µM and 4.48 µM | TGI (HOP-62 NSCLC): 9.23 µM and 13.1 µM | GI50 (IGROV1 ovarian): 4.38 µM and 18.6 µM | TGI (IGROV1 ovarian): 9.35 µM and 65.6 µM | GI50 (HCT-116 colon): 3.29 µM and 1.84 µM | TGI (HCT-116 colon): 7.8 µM and 6.72 µM | GI50 (BT-549 breast): 4.73 µM and 15 µM | TGI (BT-549 breast): 9.3 µM and 44.1 µM | GI50 (CCRF-CEM leukemia): 4.32 µM and 2.43 µM | TGI (CCRF-CEM leukemia): 11.3 µM and 10.2 µM | GI50 (NCI/ADR-RES ovarian): 14.1 µM and 62.7 µM | TGI (NCI/ADR-RES ovarian): 25 µM and > 100 µM | GI50 (HT29 colon): 0.127 µM and 0.29 µM | TGI (HT29 colon): 4.53 µM and 3.49 µM | GI50 (SW-620 colon): 4.07 µM and 2.15 µM | TGI (SW-620 colon): 7.72 µM and 4.78 µM | GI50 (ACHN renal): 4.79 µM and 5.03 µM | TGI (ACHN renal): 9.01 µM and 22 µM | GI50 (HS 578T breast): 3.96 µM and 25.7 µM | TGI (HS 578T breast): 9.4 µM and 65.5 µM | GI50 (CAKI-1 renal): 5.18 µM and 16.9 µM | TGI (CAKI-1 renal): 19.5 µM and 44.8 µM | GI50 (MOLT-4 leukemia): 5.74 µM and 3.53 µM | TGI (MOLT-4 leukemia): 12.2 µM and 25.7 µM | GI50 (PC-3 prostate): 4.09 µM and 5.66 µM | TGI (PC-3 prostate): 8.12 µM and 13.7 µM | GI50 (OVCAR-3 ovarian): 4.42 µM and 4.34 µM | TGI (OVCAR-3 ovarian): 8.49 µM and 8.94 µM | GI50 (K-562 leukemia): 4.74 µM and 1.95 µM | TGI (K-562 leukemia): 10.5 µM and 4.2 µM | GI50 (SR leukemia): 5.48 µM and 3.64 µM | TGI (SR leukemia): 16.6 µM and 14.5 µM | GI50 (HL-60(TB) leukemia): 2.83 µM and 2.45 µM | TGI (HL-60(TB) leukemia): 7.44 µM and 14.5 µM | GI50 (MCF7 breast): 4.52 µM and 3.55 µM | TGI (MCF7 breast): 9.03 µM and 16.1 µM | TGI (MDA-MB-435): 5.17 µM and 41.2 µM | GI50 (UO-31 renal): 5.61 µM and 18.8 µM | TGI (UO-31 renal): 10 µM and 45.6 µM | GI50 (SNB-19 CNS): 5.29 µM and 5.01 µM | TGI (SNB-19 CNS): 10.8 µM and 9.56 µM | GI50 (SF-268 CNS): 4.38 µM and 7.26 µM | TGI (SF-268 CNS): 9.05 µM and 15.4 µM | GI50 (SK-MEL-2 melanoma): 0.108 µM and 0.367 µM | GI50 (MDA-MB-231 breast): 3.27 µM and 1.63 µM | TGI (MDA-MB-231 breast): 7.26 µM and 4.88 µM | GI50 (MALME-3M melanoma): 0.00596 µM and 0.0186 µM | GI50 (UACC-62 melanoma): 0.0177 µM and 0.0275 µM | TGI (UACC-62 melanoma): 2.55 µM and 0.876 µM | GI50 (A549 NSCLC): 4.76 µM and 6.36 µM | TGI (A549 NSCLC): 9.68 µM and 32.7 µM | GI50 (EKVX NSCLC): 4.7 µM and 9 µM | TGI (EKVX NSCLC): 11 µM and 38.4 µM | GI50 (RPMI-8226 leukemia): 5.75 µM and 16.8 µM | TGI (RPMI-8226 leukemia): 13.7 µM and 77 µM | GI50 (OVCAR-8 ovarian): 4.84 µM and 3.2 µM | TGI (OVCAR-8 ovarian): 10.1 µM and 8.96 µM | GI50 (A498 renal): 4.68 µM and 8.84 µM | TGI (A498 renal): 9.57 µM and 27.2 µM | GI50 (OVCAR-5 ovarian): 3.7 µM and 1.61 µM | TGI (OVCAR-5 ovarian): 7.55 µM and 6.27 µM | GI50 (SNB-75 CNS): 0.403 µM and 1.11 µM | TGI (SNB-75 CNS): 5.48 µM and 11 µM | GI50 (SK-MEL-28 melanoma): 0.0188 µM and 0.029 µM | TGI (SK-MEL-28 melanoma): 3.26 µM and 1.85 µM | GI50 (SK-MEL-5 melanoma): 3.31 µM and 5.46 µM | TGI (SK-MEL-5 melanoma): 6.81 µM and 19.9 µM | GI50 (RXF 393 renal): 4.37 µM and 4.3 µM | TGI (RXF 393 renal): 9.58 µM and 8.17 µM | GI50 (NCI-H522 lung): 3.9 µM and 5.5 µM | TGI (NCI-H522 lung): 9.59 µM and 21 µM | GI50 (M14 melanoma): 0.0258 µM and 0.054 µM | TGI (M14 melanoma): 2.14 µM and 3.69 µM | GI50 (NCI-H23 lung): 3.23 µM and 3.98 µM | TGI (NCI-H23 lung): 7.85 µM and 25.7 µM | GI50 (OVCAR-4 ovarian): 4.72 µM and 6.69 µM | TGI (OVCAR-4 ovarian): 9.74 µM and 37.8 µM | GI50 (T-47D breast): 4.8 µM and 7.63 µM | TGI (T-47D breast): 9.55 µM and 30.6 µM | GI50 (UACC-257 melanoma): 0.0456 µM and 0.0489 µM | TGI (UACC-257 melanoma): 1.07 µM and 2.74 µM | GI50 (HCT-15 colon): 9.22 µM and 15.5 µM | TGI (HCT-15 colon): 25 µM and 57.4 µM | GI50 (NCI-H226 lung): 4.72 µM and 8.03 µM | TGI (NCI-H226 lung): 9.77 µM and 17.1 µM | GI50 (SK-OV-3 ovarian): 3.67 µM and 9.66 µM | TGI (SK-OV-3 ovarian): 7.52 µM and 22.1 µM | GI50 (COLO 205 colon): 0.00987 µM and 0.0293 µM | TGI (COLO 205 colon): 3.1 µM and 5.06 µM | GI50 (SF-539 CNS): 4.74 µM and 4.07 µM | TGI (SF-539 CNS): 9.3 µM and 7.77 µM | GI50 (SN12C renal): 4.68 µM and 9.41 µM | TGI (SN12C renal): 8.83 µM and 25.9 µM

CC1(C#N)N(C(=O)c2ccccc2)c2ccccc2N1C(=O)c1ccccc1
GI50 (LOX IMVI melanoma): 33.6 µM | GI50 (U251 CNS): 15.3 µM | GI50 (DU-145 prostate): 81.8 µM | GI50 (HOP-92 NSCLC): 52 µM | GI50 (HCT-116 colon): 35.4 µM | GI50 (CCRF-CEM leukemia): 23.9 µM | TGI (CCRF-CEM leukemia): 77.9 µM | GI50 (MDA-N): 79.4 µM | GI50 (NCI/ADR-RES ovarian): 79.7 µM | GI50 (HT29 colon): 66.4 µM | GI50 (SW-620 colon): 75.9 µM | GI50 (ACHN renal): 72.9 µM | GI50 (CAKI-1 renal): 65 µM | GI50 (MOLT-4 leukemia): 22.9 µM | TGI (MOLT-4 leukemia): 71.9 µM | GI50 (K-562 leukemia): 33 µM | GI50 (SR leukemia): 45.4 µM | GI50 (HL-60(TB) leukemia): 69.9 µM | GI50 (MCF7 breast): 37.2 µM | GI50 (MDA-MB-435): 62.9 µM | GI50 (UO-31 renal): 45.1 µM | GI50 (MDA-MB-231 breast): 65.3 µM | GI50 (MALME-3M melanoma): 44.6 µM | GI50 (UACC-62 melanoma): 79.7 µM | GI50 (RPMI-8226 leukemia): 39.8 µM | GI50 (NCI-H522 lung): 49.4 µM | GI50 (M14 melanoma): 29.3 µM | TGI (M14 melanoma): 98.4 µM | GI50 (NCI-H23 lung): 64.4 µM | GI50 (OVCAR-4 ovarian): 57.7 µM | GI50 (T-47D breast): 38.7 µM | GI50 (UACC-257 melanoma): 86.4 µM | GI50 (NCI-H226 lung): 91.8 µM | GI50 (COLO 205 colon): 46.5 µM
